Measurements from US20220117917A1, “PH-ACTIVATED NANOPARTICLES” (Ohio State Innovation Foundation, priority 2018, published 2022).

Columns and labels:
[1] = cited from earlier work
[2] = Electrophoretic stability assay of anti-miR21 oligonucleotide; format: in vitro ADME; conditions: 37° C.
Description: Electrophoretic gel assay. Free anti-miR21 oligonucleotide and in-MW@NP (in PBS or serum) were mixed with loading buffer, and then loaded into 2% wt agarose gel with […] ethidium bromide. Electrophoresis was conducted in 1×TEA buffer at 80 V for 10 min. The result gels were analyzed using a UV illuminator (FluorChem™ E System, CA, USA) to show its location of anti-miR21 oligonucleotide.

BT474 cells = assay: Cell viability and Western blot; format: cell-based, human
Description: (§1) Immunoblotting. Immunoblotting was performed as described previously (Liu Y, et al. Nature 2015 520:697-701). Briefly, total cell lysates were solubilized in lysis buffer (50 mM Tris, pH 7.5, 150 mM NaCl, 1 mM EDTA, 0.5% NP-40, 0.5% Triton X-100, 1 mM phenylmethylsulfonyl fluoride, 1 mM sodium fluoride, 5 mM sodium vanadate, 1 μg each of aprotinin, leupeptin, and pepstatin per ml). Proteins were resolved by SDS-PAGE gels and then proteins were transferred to PVDF membranes (Bio-Rad). The membranes were blocked with 5% nonfat milk for 1 h at room temperature prior to incubation with indicated primary antibodies. Subsequently membranes were washed and incubated for 1 h at room temperature with peroxidase-conjugated secondary antibodies (Santa Cruz Biotechnology). Following several washes, chemiluminescent images of immunodetected bands on the membranes were recorded on X-ray films using the enhanced chemiluminescence (ECL) system (Perkinelmer) according to the manufacturer's instructions.
(§2) Cell viability assay. Equal numbers of cells were plated in 12 well plates in triplicate. After incubation with indicated reagents for 72 hours, cell viability was quantified using Vi-Cell cell viability analyzer (Beckman Coulter).

HER18R cells = assay: Cell viability and Western blot, trastuzumab-resistant cells; format: cell-based, human; conditions: along with trastuzumab 1 μg/ml, 72 h
[3] = cited from earlier work; remark: listed apart in the source
MDA-MB453 cells = assay: Cell viability; format: cell-based, human; conditions: 72 h; mutant p53
Description: as §2

HER18 cells = assay: Cell viability and Western blot; format: cell-based, human
Description: as §1, §2

Wip1 = target: T1, Wip1 (Homo sapiens, UniProt O15297); conditions: cited from earlier work
T1 sequence (O15297 1-605): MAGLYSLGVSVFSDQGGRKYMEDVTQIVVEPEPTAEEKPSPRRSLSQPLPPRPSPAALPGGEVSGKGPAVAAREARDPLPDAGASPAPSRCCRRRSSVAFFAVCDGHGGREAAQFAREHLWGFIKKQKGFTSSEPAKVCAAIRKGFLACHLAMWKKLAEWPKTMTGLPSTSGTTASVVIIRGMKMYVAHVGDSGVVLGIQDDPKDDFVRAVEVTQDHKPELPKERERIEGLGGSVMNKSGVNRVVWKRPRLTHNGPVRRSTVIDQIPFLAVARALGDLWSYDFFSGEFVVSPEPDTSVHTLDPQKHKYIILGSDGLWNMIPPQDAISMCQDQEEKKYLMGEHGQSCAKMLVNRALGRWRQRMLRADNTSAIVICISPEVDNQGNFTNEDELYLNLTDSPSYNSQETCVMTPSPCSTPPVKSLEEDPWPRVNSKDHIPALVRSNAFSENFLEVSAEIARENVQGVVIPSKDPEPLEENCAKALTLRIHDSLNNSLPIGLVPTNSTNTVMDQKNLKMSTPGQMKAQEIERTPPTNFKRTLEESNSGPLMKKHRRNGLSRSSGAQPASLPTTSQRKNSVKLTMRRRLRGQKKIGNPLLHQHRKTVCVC

[4] = parameters: species or system mice; conditions: mouse, in vivo
Description: The tumor targeting capability of the nanoparticles was next investigated in mice. Indocyanine green (ICG) was encapsulated in the nanoparticles for in vivo imaging. […] To confirm the observation from whole animal imaging, various organs were harvested for ex vivo imaging to check the biodistribution of ICG after sacrificing the mice at 24 h. […] The antitumor efficacy and safety of the WIP1 and/or miR-21 inhibitor-laden nanoparticles were also investigated in vivo by treating orthotopic HER18R mammary tumor-bearing mice. The tumors were established by injecting 2,000,000 HER18R cells per animal into the fat pad of 6-8 week-old female nude mice. The tumor-bearing mice were divided randomly into four groups: blank nanoparticles, WIP1 inhibitor-laden nanoparticles, miR-21 inhibitor-laden nanoparticles, and WIP1+miR-21 inhibitors-laden nanoparticles. Mice were treated with 1.0 mg/kg body weight of miR-21 inhibitor and/or 5.0 mg/kg of WIP1 inhibitor encapsulated in the nanoparticles via intravenous injection when the tumor reached a volume of ˜150 mm^3 at 21 days after implantation. […] Moreover, side effect of the drug-laden or blank nanoparticles was negligible.

Row | Compound | stability in blood ([1]; in vivo) | onset of degradation [2] | time oligonucleotide observable ([2]; up to 36 h) | cell proliferation and viability (BT474 cells; HER2+/p53-mutant cells with 17q23 amplification) | sensitization to trastuzumab (HER18R cells) | bioavailability in vivo [1] | solubility in water [3] | sensitivity (cell viability) (MDA-MB453 cells) | sensitivity (cell viability) (BT474 cells; 72 h, mutant p53) | sensitivity (cell viability) (HER18 cells; 72 h, wildtype p53) | phosphorylated CHK2 and p21 levels (HER18 cells; immunoblotting) | selectivity for Wip1 over other phosphatases (Wip1) | ICG fluorescence in liver [4] | ICG signal / localization [4]
1 | anti-miR-21: anti-miR-21 oligonucleotide; in some embodiments UCAACAUCAGUCUGAUAAGCUAG (SEQ ID NO: 5) (further chemistry not given here) | relatively unstable in blood | started to degrade in a few minutes | less than 2 h | significantly reduced the cell proliferation and viability | sensitized |  |  |  |  |  |  |  |  | 
2 | Cc1ncc(Cl)cc1NCc1ccc(C(=O)N[C@@H](CC2CCCC2)C(=O)NC2CC2)s1 [GSK2830371] |  |  |  |  | sensitized | poor bioavailability in vivo | poor solubility in water | notably insensitive | notably insensitive | very sensitive | significantly increased the levels of phosphorylated CHK2 and the p53-induced p21 | selectivity for Wip1 over 21 other phosphatases |  | 
3 | CC1(C)C(/C=C/C=C/C=C/C=C2\N(CCCCS(=O)(=O)O)c3ccc4ccccc4c3C2(C)C)=[N+](CCCCS(=O)(=O)[O-])c2ccc3ccccc3c21 [free ICG, Indocyanine green] |  |  |  |  |  |  |  |  |  |  |  |  | weak fluorescence | no notable signal
